We go through eleven compounds from patent EP0558245A1, “Heterobicyclic compounds as antagogists of alpha-1 adrenergic and SHT1A receptors” (priority 1992, dated 1993).

The test system of data set [1] is diastolic blood pressure. The experiment in a line: Effects on blood pressure in anaesthetized dogs. The note with it: Canis lupus familiaris, iv. It counts as in vivo. The text has this: (§1) In order to monitor systemic blood pressure (BP), a PE catheter was introduced into the aortic arch through the right common carotid artery.
(§2) A collateral of the left femoral vein was cannulated for infusion of anaesthetic, and the right femoral vein was cannulated for administration of drugs. For intrarterial (i.a.) injection of noradrenaline (NA), a PE catheter was introduced into the lower portion of abdominal aorta via the right external iliac artery. Through such procedure, NA was selectively distributed to the lower urinary tract. Via a midline laparotomy, the urinary bladder and proximal urethra were exposed. In order to prevent the filling of the bladder, the two ureters were cannulated and the urine led outside. In order to record the prostatic urethral pressure, a Mikro-tip catheter (6 F) was introduced into the bladder via the external urethral meatus, and withdrawn until the pressure transducer was positioned in the prostatic urethra. A ligature was secured between the neck of the bladder and urethra to isolate the response of the latter and avoid any interaction with the bladder. Another ligature was put around the Mikro-tip catheter at the external urethral meatus, to secure the catheter itself. After a stabilizing period following surgical procedure (30 min), in which arterial and prostatic urethral pressure were continuously monitored as basal values, i.a. administration of NA was made at intervals of 10 min. The dose of NA chosen was such to produce an increase of at least 100% in urethral pressure. The test compounds were administered i.v. in a cumulative manner with intervals of 15-20 min between administrations. I.a. injections of NA were repeated approximately 5 min. after every dosing of test compound. Dose response curves were constructed computing the percentage inhibition to the increase in urethral pressure (NA induced), and the percentage drop in blood pressure produced by the test compound.

The test system of data set [2] is noradrenaline induced contraction of urethra. Nature of the data set: Effects on urethral contractions (noradrenaline-induced) in anaesthetized dogs. It counts as in vivo. The note with it: for ED50: Canis lupus familiaris, iv; for DBP/Urethra ratio: ratio between the active doses (selectivity index), * = non-selective: substantial effect on both urethra and DBP.
Source text: as §1, §2

The subject of data set [3] is rat bladder strips. The experiment in a line: K+-induced contractions of rat bladder strips. It counts as cell-based. The note with it: 80 mM KCl, drug added 30 minutes before. The procedure:
The whole bladder of the rat was removed and immediately placed in Krebs solution warmed at 37°C. […] Each strip was placed in a 10 ml organ bath and connected, under a constant load of 1 g, to an isometric strain gauge (DY-1 Basile, Comerio, Varese, Italy). […] After a 60 minutes equilibration period the strips were exposed to 80 mM KCl (final concentration). […] When the tonic contraction was stable, the strips were washed and 30 minutes later a new contraction was induced. After having recorded two or more reproducible responses, one concentration of the tested drugs was added to the bath and 30 minutes later a new contraction was induced. The experimental groups consisted of at least two preparations taken from different animals for each concentration of drug tested. The IC₅₀ values of inhibition of agonist-induced contractions were evaluated by linear regression analysis.

Data set [4] has as its target T1, 5HT1A receptors (Rattus norvegicus, UniProt P19327).
T1 construct: Rat hippocampi were homogenized; from tissue; host or cells: rat hippocampus membranes
T1 sequence (P19327 1-422): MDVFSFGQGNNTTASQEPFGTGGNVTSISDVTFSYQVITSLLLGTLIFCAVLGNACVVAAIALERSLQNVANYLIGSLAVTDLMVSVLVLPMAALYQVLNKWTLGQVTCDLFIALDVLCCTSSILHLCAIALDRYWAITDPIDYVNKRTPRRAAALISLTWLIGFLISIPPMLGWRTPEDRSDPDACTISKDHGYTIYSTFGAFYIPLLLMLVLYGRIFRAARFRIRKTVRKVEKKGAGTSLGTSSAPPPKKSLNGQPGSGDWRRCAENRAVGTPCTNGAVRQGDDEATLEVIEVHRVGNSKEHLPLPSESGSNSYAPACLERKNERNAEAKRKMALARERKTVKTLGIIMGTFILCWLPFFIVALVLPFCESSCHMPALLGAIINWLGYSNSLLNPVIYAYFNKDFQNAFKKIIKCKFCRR
Nature of the data set: [3H]8-OH-DPAT binding (5HT1A receptors), rat hippocampus membranes. As to conditions: rat hippocampus crude membranes, [3H]8-OH-DPAT 1.0 nM, 25°C 30 min; read-out: Receptor Binding IC50 (nM) 5-HT1a.

The nature of data set [5]: Acute toxicity in mice after intraperitoneal and oral administration. As to conditions: mouse, in vivo. A digest of the protocol: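 Female albino Swiss mice (20-30 g) dosed i.p. or orally at four log-scaled doses in 0.5% Methocel (10 ml/kg), 4 mice/dose. Mortality recorded at 7 days; LD₅₀ with fiducial limits by Weil's method.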
For data set [6], the target named is α₁ receptors. Nature of the data set: [3H]prazosin binding (α1 receptors), rat cerebral cortex membranes. As to conditions: rat cerebral cortex crude membranes, [3H]prazosin 0.35 nM, 25°C 30 min; read-out: Receptor Binding IC50 (nM) α1.
Setting [7] is: anaesthetized male beagle dogs, i.v. cumulative, active dose in lowering diastolic blood pressure by 25%, read-out: DBP ED25.
The mark [8] stands for this setting: anaesthetized male beagle dogs, i.v. cumulative, active dose in inhibiting by 50% the noradrenaline induced contraction of urethra, read-out: Urethra ED50.
Where [9] appears, read: phasic contraction, read-out: K+ Stimulation of Rat Bladder IC50 (μM) Contractions Phasic.
The mark [10] stands for this setting: tonic contraction, read-out: K+ Stimulation of Rat Bladder IC50 (μM) Contractions Tonic.
Where [11] appears, read: ip, female albino Swiss mice, intraperitoneal, mortality recorded 7 days after administration, read-out: Acute Toxicity in Mice LD50 (mg/kg) i.p.
The mark [12] stands for this setting: female albino Swiss mice, oral, mortality recorded 7 days after administration, read-out: Acute Toxicity in Mice LD50 (mg/kg) p.o.

Where a name gives a salt, the structure may show the parent alone. Read-outs that look alike come from different tables or passages of the source.

For orientation: IC50 means the point on the concentration scale where inhibition reaches its midpoint. With `COc1ccccc1N1CCN(CCNC(=O)c2cccc3c(=O)c(C)c(-c4ccccc4)oc23)CC1` [Example 13, 8-{2-[4-(2-methoxyphenyl)-1-piperazinyl]-ethylcarbamoyl}-3-methyl-4-oxo-2-phenyl-4H-1-benzopyran monohydrochloride hemihydrate], the ED25 in data set [1] (setting [7]) was 215 µg/kg. Also, the ED50 in data set [2] (setting [8]) was found to be 16 µg/kg. Further, the DBP/Urethra ratio in data set [2] came out at 13.4. Further, the IC50 worked out at 10 µM in data set [3] (setting [9]), 10 µM in data set [3] (setting [10]), 229 nM in data set [4] and 68 nM in data set [6]. Further, the LD50 at 168 h in data set [5] (setting [11]) is over 1000 mg/kg; in data set [5] (setting [12]), over 3000 mg/kg.

With `COc1ccccc1N1CCN(CCCCCOc2cccc3c(=O)c(C)c(-c4ccccc4)oc23)CC1.Cl` [Example 42, 8-{5-[4-(2-methoxyphenyl)-1-piperazinyl]-pentyloxy}-3-methyl-4-oxo-2-phenyl-4H-1-benzopyran hydrochloride], in data set [1] (setting [7]), the ED25 was 404 µg/kg. The ED50 in data set [2] (setting [8]) worked out at 31 µg/kg. The DBP/Urethra ratio in data set [2] stood at 13.0. Also, the IC50 in data set [3] (setting [9]) is 10 µM; in data set [3] (setting [10]), 10 µM; in data set [4], 39 nM; in data set [6], 111 nM. Also, the LD50 at 168 h in data set [5] (setting [11]) turned out to be 459 mg/kg; in data set [5] (setting [12]) it was 2160 mg/kg.

Take `COc1ccccc1N1CCN(CCCNC(=O)c2cccc3c(=O)c(C)c(-c4ccccc4)oc23)CC1` [Example 11, 8-{3-[4-(2-methoxyphenyl)-1-piperazinyl]-propylcarbamoyl}-3-methyl-4-oxo-2-phenyl-4H-1-benzopyran dihydrochloride hemihydrate]: the ED25 in data set [1] (setting [7]) stood at 390 µg/kg. Further, in data set [2] (setting [8]), the ED50 turned out to be 1.4 µg/kg. The DBP/Urethra ratio in data set [2] is 278.6. For the same compound, the IC50 in data set [3] (setting [9]) stood at 2.9 µM; in data set [3] (setting [10]), 3 µM; in data set [4], 9 nM; in data set [6] it was 29 nM. In addition, the values for the LD50 at 168 h in data set [5] (setting [11]) and in data set [5] (setting [12]) were 247 mg/kg and 297 mg/kg, respectively.

Take `Cc1c(-c2ccccc2)oc2c(C(=O)OC(C)(C)CN3CCCCC3)cccc2c1=O.Cl` [Terflavoxate, 8-(1,1-dimethyl-2-piperidino-ethoxycarbonyl)-3-methyl-4-oxo-2-phenyl-4H-1-benzopyran hydrochloride, reference compound]: the ED25 in data set [1] (setting [7]) worked out at 6060 µg/kg. Moreover, the ED50 in data set [2] (setting [8]) is over 10000 µg/kg. Besides, in data set [2] (statement in words), the “effect on urethral contractions” value is “no effect on urethral contractions”.

On to `COc1ccccc1N1CCN(CCCS(=O)(=O)c2cccc3c(=O)c(C)c(-c4ccccc4)oc23)CC1.Cl` [Example 47, 8-{3-[4-(2-methoxyphenyl)-1-piperazinyl]-propylsulphonyl}-3-methyl-4-oxo-2-phenyl-4H-1-benzopyran hydrochloride], for which the ED25 in data set [1] (setting [7]) was found to be 530 µg/kg. In data set [2] (setting [8]), the ED50 is 35 µg/kg. Further, the DBP/Urethra ratio in data set [2] amounted to 15.1. The IC50 in data set [3] (setting [9]) was found to be 2.7 µM; in data set [3] (setting [10]), 5.2 µM; in data set [4], 23 nM; in data set [6], 36 nM. The results for the LD50 at 168 h in data set [5] (setting [11]) and in data set [5] (setting [12]) were 330 mg/kg and 1050 mg/kg, respectively.

Turning to `COc1ccccc1N1CCN(CCCC(O)c2cccc3c(=O)c(C)c(-c4ccccc4)oc23)CC1.Cl.O` (stereo not drawn) [Example 21, 8-{1-hydroxy-4-[4-(2-methoxyphenyl)-1-piperazinyl]-butyl}-3-methyl-4-oxo-2-phenyl-4H-1-benzopyran hydrochloride monohydrate], the ED25 in data set [1] (read-out: DBP ED25 (µg/kg)) was 127 µg/kg. In addition, the ED50 in data set [2] (read-out: Urethra ED50 (µg/kg)) came out at 6.6 µg/kg. In data set [2], the DBP/Urethra ratio came out at 19.2. The IC50 in data set [4] was 33 nM; in data set [6], 17 nM. Also, the LD50 at 168 h in data set [5] (setting [11]) came to 297 mg/kg; in data set [5] (setting [12]), 566 mg/kg.

Regarding `COc1cc2nc(N3CCN(C(=O)c4ccco4)CC3)nc(N)c2cc1OC` [Prazosin, 1-(4-amino-6,7-dimethoxy-2-quinazonlinyl)-4-(2-furoyl)-piperazine, reference compound], the ED25 in data set [1] (read-out: DBP ED25 (µg/kg)) is 6.6 µg/kg. For the same compound, in data set [2] (setting [8]), the ED50 came to 3.6 µg/kg. In addition, the DBP/Urethra ratio in data set [2] is recorded as 1.8*. Besides, the “selectivity for the mammalian lower urinary tract (antagonizing urethral contractions versus lowering blood pressure)” value in data set [2] (statement in words) was “do not exhibit such selectivity”.

`COc1ccccc1N1CCN(CC(O)COc2cccc3c(=O)c(C)c(-c4ccccc4)oc23)CC1.Cl` (stereo not drawn) [Example 45, 8-{2-hydroxy-3-[4-(2-methoxyphenyl)-1-piperazinyl]-propoxy}-3-methyl-4-oxo-2-phenyl-4H-1-benzopyran hydrochloride]: the ED25 in data set [1] (setting [7]) is 186 µg/kg. Further, the ED50 in data set [2] (setting [8]) was 16.4 µg/kg. Further, in data set [2], the DBP/Urethra ratio worked out at 11.3. Moreover, the IC50 came out at 106 nM in data set [4] and 15 nM in data set [6]. For the same compound, the LD50 at 168 h in data set [5] (setting [11]) was 329 mg/kg; in data set [5] (setting [12]) it was 1730 mg/kg.

In the case of `COc1ccccc1N1CCN(CCCCOc2cccc3c(=O)c(C)c(-c4ccccc4)oc23)CC1.Cl.Cl`, the ED25 in data set [1] (read-out: DBP ED25 (µg/kg)) stood at 745 µg/kg. In addition, in data set [2] (read-out: Urethra ED50 (µg/kg)), the ED50 was 57 µg/kg. Also, the DBP/Urethra ratio in data set [2] is 13.1. Also, the LD50 at 168 h is 399 mg/kg in data set [5] (ip, read-out: Acute Toxicity in Mice LD50 (mg/kg) i.p.) and 2240 mg/kg in data set [5] (po, read-out: Acute Toxicity in Mice LD50 (mg/kg) p.o.).

Turning to `COc1ccccc1N1CCN(CCOCc2cccc3c(=O)c(C)c(-c4ccccc4)oc23)CC1.Cl.Cl` [Example 27, 8-{2-[4-(2-methoxyphenyl)-1-piperazinyl]-ethoxymethyl}-3-methyl-4-oxo-2-phenyl-4H-1-benzopyran dihydrochloride], in data set [1] (setting [7]), the ED25 is 9.8 µg/kg. Further, the ED50 in data set [2] (setting [8]) was 3.2 µg/kg. In addition, the DBP/Urethra ratio in data set [2] is reported as 3.1*. Also, the IC50 in data set [3] (setting [9]) worked out at 1 µM; in data set [3] (setting [10]) it was 0.8 µM; in data set [4], 124 nM; in data set [6], 23 nM. Besides, the LD50 at 168 h was 399 mg/kg in data set [5] (setting [11]) and over 3000 mg/kg in data set [5] (setting [12]).

With `COc1ccccc1N1CCN(CCCOC(=O)c2cccc3c(=O)c(C)c(-c4ccccc4)oc23)CC1.Cl.Cl` [Example 5, 8-{3-[4-(2-methoxyphenyl)-1-piperazinyl]-propoxycarbonyl}-3-methyl-4-oxo-2-phenyl-4H-1-benzopyran dihydrochloride], the ED25 in data set [1] (setting [7]) amounted to 1070 µg/kg. Besides, the ED50 in data set [2] (setting [8]) was 37 µg/kg. Also, in data set [2], the DBP/Urethra ratio is recorded as 29.0. The IC50 in data set [4] amounted to 19 nM; in data set [6], 20 nM. Moreover, the results for the LD50 at 168 h in data set [5] (setting [11]) and in data set [5] (setting [12]) were 621 mg/kg and over 3000 mg/kg, respectively.
